Measured values as given in ChEMBL document CHEMBL5352441, “Modulation of FLT3-ITD and CDK9 in acute myeloid leukaemia cells by novel proteolysis targeting chimera (PROTAC)” (2022).
Activity calls are given as the source filed them. No cut-off for these calls is given here.

Columns and labels:
MV4-11 [1] = experiment: Induction of cell cycle arrest in CRBN-deficient human MV4-11 cells assessed as accumulation of cells at S phase at 2.5 uM incubated for 16 hrs by PI staining based flow cytometry analysis (reference value: 36.91%); assay type: functional
MV4-11 [2] = experiment: Induction of cell cycle arrest in CRBN-deficient human MV4-11 cells assessed as accumulation of cells at G2/M phase at 0.1 uM incubated for 16 hrs by PI staining based flow cytometry analysis (reference value: 9.34%); assay type: functional
THP-1 = experiment: Antiproliferative activity against human THP-1 cells assessed as cell growth inhibition incubated for 72 hrs by resazurin dye based fluorescence analysis; assay type: functional
[3] = biological target: T1, Protein cereblon/Cyclin-dependent kinase 9 (Homo sapiens) (UniProt P50750+Q96SW2); experiment: PROTAC activity at CRBN/CDK9 in human MV4-11 cells harboring FLT3-ITD mutation assessed as induction of protein degradation incubated for 16 hrs by immunoblot analysis; assay type: cell-based; details: dose 0.004-2.5 µM
MV4-11 [4] = experiment: Induction of cell cycle arrest in CRBN-deficient human MV4-11 cells assessed as accumulation of cells at G1 phase at 0.5 uM incubated for 16 hrs by PI staining based flow cytometry analysis (reference value: 54.05%); assay type: functional
MV4-11 [5] = experiment: Induction of apoptosis in human MV4-11 cells assessed as activation of caspase 7 at 0.1 to 0.5 uM preincubated for 90 mins with 4-hydroxythalidomide followed by compound addition and further incubated for 16 hrs in presence of Ac-DEVD-AMC by fluorescence microplate reader analysis; assay type: functional, cell-based; details: dose 0.1-0.5 µM
MV4-11 [6] = experiment: Induction of cell cycle arrest in human MV4-11 cells assessed as accumulation of cells at subG1 phase at 0.02 uM incubated for 16 hrs by PI staining based flow cytometry analysis (reference value: 10.51%); assay type: functional
MV4-11 [7] = experiment: Induction of cell cycle arrest in human MV4-11 cells assessed as accumulation of cells at G2/M phase at 0.5 uM incubated for 16 hrs by PI staining based flow cytometry analysis (reference value: 10.86%); assay type: functional
MV4-11 [8] = experiment: Induction of cell cycle arrest in human MV4-11 cells assessed as accumulation of cells at G2/M phase at 0.02 uM incubated for 16 hrs by PI staining based flow cytometry analysis (reference value: 10.86%); assay type: functional
[9] = biological target: CDK9/cyclin T1 (Homo sapiens) (UniProt O60563+P50750); experiment: Inhibition of human CDK9/Cyclin T1 assessed as residual activity at 100 nM relative to control; assay type: protein-complex assay
MV4-11 [10] = experiment: Induction of cell cycle arrest in human MV4-11 cells assessed as accumulation of cells at G1 phase at 0.02 uM incubated for 16 hrs by PI staining based flow cytometry analysis (reference value: 62.97%); assay type: functional
MV4-11 [11] = experiment: Induction of cell cycle arrest in CRBN-deficient human MV4-11 cells assessed as accumulation of cells at G2/M phase at 0.004 uM incubated for 16 hrs by PI staining based flow cytometry analysis (reference value: 9.34%); assay type: functional
MV4-11 [12] = experiment: Induction of cell cycle arrest in human MV4-11 cells assessed as accumulation of cells at subG1 phase at 2.5 uM incubated for 16 hrs by PI staining based flow cytometry analysis (reference value: 10.51%); assay type: functional
[13] = biological target: Protein cereblon/Receptor-type tyrosine-protein kinase FLT3 (Homo sapiens) (UniProt P36888+Q96SW2); experiment: PROTAC activity at CRBN/FLT3 in human MV4-11 cells harboring FLT3-ITD mutation assessed as induction of protein degradation at low nanomolar concentrations incubated for 16 hrs by immunoblot analysis; assay type: cell-based
MV4-11 [14] = experiment: Induction of cell cycle arrest in human MV4-11 cells assessed as accumulation of cells at S phase at 0.004 uM incubated for 16 hrs by PI staining based flow cytometry analysis (reference value: 26.16%); assay type: functional
MV4-11 [15] = experiment: Induction of cell cycle arrest in human MV4-11 cells assessed as accumulation of cells at S phase at 0.02 uM incubated for 16 hrs by PI staining based flow cytometry analysis (reference value: 26.16%); assay type: functional
MV4-11 [16] = experiment: Induction of cell cycle arrest in CRBN-deficient human MV4-11 cells assessed as accumulation of cells at sub-G1 phase at 0.5 uM incubated for 16 hrs by PI staining based flow cytometry analysis (reference value: 12.52%); assay type: functional
MV4-11 [17] = experiment: Induction of cell cycle arrest in human MV4-11 cells assessed as accumulation of cells at G1 phase at 2.5 uM incubated for 16 hrs by PI staining based flow cytometry analysis (reference value: 62.97%); assay type: functional
MV4-11 [18] = experiment: Induction of cell cycle arrest in human MV4-11 cells assessed as accumulation of cells at subG1 phase at 0.1 uM incubated for 16 hrs by PI staining based flow cytometry analysis (reference value: 10.51%); assay type: functional
MV4-11 [19] = experiment: Induction of apoptosis in CRBN-deficient human MV4-11 cells assessed as activation of caspase 7 at 0.004 to 25 uM incubated for 16 hrs in presence of Ac-DEVD-AMC by fluorescence microplate reader analysis; assay type: functional, cell-based; details: dose 0.004-25 µM
MV4-11 [20] = experiment: Induction of apoptosis in human MV4-11 cells assessed as PARP-1 cleavage incubated for 16 hrs in presence of Ac-DEVD-AMC by fluorescence microplate reader analysis; assay type: functional, cell-based; details: dose 0.004-2.5 µM
MV4-11 [21] = experiment: Induction of cell cycle arrest in CRBN-deficient human MV4-11 cells assessed as accumulation of cells at S phase at 0.004 uM incubated for 16 hrs by PI staining based flow cytometry analysis (reference value: 36.91%); assay type: functional
[22] = biological target: T1, Protein cereblon/Cyclin-dependent kinase 9 (Homo sapiens); experiment: PROTAC activity at CRBN/CDK9 in human MV4-11 cells at 0.1 to 0.5 uM preincubated for 90 mins with 4-hydroxythalidomide followed by compound addition and further incubated for 16 hrs by immunoblot analysis; assay type: cell-based; details: dose 0.1-0.5 µM
MV4-11 [23] = experiment: Antiproliferative activity against human MV4-11 cells harboring FLT3-ITD mutation assessed as cell growth inhibition incubated for 72 hrs by resazurin dye based fluorescence analysis; assay type: functional
MV4-11 [24] = experiment: Induction of cell cycle arrest in CRBN-deficient human MV4-11 cells assessed as accumulation of cells at S phase at 0.1 uM incubated for 16 hrs by PI staining based flow cytometry analysis (reference value: 36.91%); assay type: functional
MV4-11 [25] = experiment: Induction of cell cycle arrest in CRBN-deficient human MV4-11 cells assessed as accumulation of cells at sub-G1 phase at 2.5 uM incubated for 16 hrs by PI staining based flow cytometry analysis (reference value: 12.52%); assay type: functional
MV4-11 [26] = experiment: Induction of apoptosis in human MV4-11 cells assessed as activation of caspase 3 incubated for 16 hrs in presence of Ac-DEVD-AMC by fluorescence microplate reader analysis; assay type: functional, cell-based; details: dose 0.004-2.5 µM
MV4-11 [27] = experiment: Induction of cell cycle arrest in CRBN-deficient human MV4-11 cells assessed as accumulation of cells at G1 phase at 0.02 uM incubated for 16 hrs by PI staining based flow cytometry analysis (reference value: 54.05%); assay type: functional
[28] = biological target: Receptor-type tyrosine-protein kinase FLT3 (Homo sapiens) (UniProt P36888); experiment: Inhibition of FLT3 signalling pathway in human MV4-11 cells assessed as reduction in STAT5 phosphorylation at Y694 residues at 0.1 to 0.5 uM preincubated for 90 mins with 4-hydroxythalidomide followed by compound addition and further incubated for 16 hrs by immunoblot analysis; assay type: cell-based; details: dose 0.1-0.5 µM
Receptor-type tyrosine-protein kinase FLT3 (Homo sapiens), sequence (P36888 whole entry): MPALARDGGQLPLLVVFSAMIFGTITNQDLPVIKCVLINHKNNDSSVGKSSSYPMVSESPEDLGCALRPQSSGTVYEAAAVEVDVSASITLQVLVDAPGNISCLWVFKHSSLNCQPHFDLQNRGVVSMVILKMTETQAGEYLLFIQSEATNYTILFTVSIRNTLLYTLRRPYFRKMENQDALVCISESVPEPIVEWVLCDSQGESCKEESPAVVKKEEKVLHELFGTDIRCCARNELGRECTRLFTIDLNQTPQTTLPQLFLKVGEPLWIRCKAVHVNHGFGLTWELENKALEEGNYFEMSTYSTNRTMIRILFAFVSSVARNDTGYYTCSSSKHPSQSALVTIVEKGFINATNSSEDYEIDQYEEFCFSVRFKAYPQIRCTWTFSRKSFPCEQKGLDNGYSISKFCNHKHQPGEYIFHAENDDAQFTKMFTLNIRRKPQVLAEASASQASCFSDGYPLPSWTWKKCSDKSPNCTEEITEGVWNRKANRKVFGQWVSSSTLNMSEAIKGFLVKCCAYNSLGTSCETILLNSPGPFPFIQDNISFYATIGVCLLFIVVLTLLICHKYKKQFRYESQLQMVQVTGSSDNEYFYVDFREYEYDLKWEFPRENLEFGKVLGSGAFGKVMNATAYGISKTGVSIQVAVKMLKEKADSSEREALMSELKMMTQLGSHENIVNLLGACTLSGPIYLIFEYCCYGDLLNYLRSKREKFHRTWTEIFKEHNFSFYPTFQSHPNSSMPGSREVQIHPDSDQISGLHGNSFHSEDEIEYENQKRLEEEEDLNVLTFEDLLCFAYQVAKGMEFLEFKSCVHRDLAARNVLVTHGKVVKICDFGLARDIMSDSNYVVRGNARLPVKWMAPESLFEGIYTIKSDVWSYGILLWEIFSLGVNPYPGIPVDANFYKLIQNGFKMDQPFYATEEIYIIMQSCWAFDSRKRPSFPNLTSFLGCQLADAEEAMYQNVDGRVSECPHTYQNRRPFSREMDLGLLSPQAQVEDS

T1 sequence (P50750 whole entry, looked up): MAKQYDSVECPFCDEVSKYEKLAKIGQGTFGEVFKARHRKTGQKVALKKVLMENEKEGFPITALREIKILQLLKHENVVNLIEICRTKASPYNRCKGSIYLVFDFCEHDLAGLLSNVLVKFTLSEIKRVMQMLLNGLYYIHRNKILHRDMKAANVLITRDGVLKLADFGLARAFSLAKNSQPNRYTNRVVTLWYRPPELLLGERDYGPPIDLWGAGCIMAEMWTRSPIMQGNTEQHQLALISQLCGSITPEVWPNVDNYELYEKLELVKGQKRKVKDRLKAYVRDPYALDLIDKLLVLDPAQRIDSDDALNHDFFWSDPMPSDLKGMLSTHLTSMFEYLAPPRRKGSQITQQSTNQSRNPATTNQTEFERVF
T1 sequence (Q96SW2 whole entry, looked up): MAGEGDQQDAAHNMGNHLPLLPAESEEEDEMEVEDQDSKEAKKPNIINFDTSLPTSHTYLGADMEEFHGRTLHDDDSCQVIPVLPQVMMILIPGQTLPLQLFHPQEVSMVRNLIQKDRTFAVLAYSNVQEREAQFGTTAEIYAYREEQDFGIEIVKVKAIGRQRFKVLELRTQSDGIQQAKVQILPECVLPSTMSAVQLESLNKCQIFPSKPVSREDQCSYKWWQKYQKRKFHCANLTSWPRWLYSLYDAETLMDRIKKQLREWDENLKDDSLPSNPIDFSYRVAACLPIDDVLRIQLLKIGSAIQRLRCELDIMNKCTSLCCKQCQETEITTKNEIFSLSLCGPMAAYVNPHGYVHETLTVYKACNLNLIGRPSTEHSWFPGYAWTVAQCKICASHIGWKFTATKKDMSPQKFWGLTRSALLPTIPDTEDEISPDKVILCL
Protein cereblon/Receptor-type tyrosine-protein kinase FLT3 (Homo sapiens), sequence (P36888 27-993 limits assumed): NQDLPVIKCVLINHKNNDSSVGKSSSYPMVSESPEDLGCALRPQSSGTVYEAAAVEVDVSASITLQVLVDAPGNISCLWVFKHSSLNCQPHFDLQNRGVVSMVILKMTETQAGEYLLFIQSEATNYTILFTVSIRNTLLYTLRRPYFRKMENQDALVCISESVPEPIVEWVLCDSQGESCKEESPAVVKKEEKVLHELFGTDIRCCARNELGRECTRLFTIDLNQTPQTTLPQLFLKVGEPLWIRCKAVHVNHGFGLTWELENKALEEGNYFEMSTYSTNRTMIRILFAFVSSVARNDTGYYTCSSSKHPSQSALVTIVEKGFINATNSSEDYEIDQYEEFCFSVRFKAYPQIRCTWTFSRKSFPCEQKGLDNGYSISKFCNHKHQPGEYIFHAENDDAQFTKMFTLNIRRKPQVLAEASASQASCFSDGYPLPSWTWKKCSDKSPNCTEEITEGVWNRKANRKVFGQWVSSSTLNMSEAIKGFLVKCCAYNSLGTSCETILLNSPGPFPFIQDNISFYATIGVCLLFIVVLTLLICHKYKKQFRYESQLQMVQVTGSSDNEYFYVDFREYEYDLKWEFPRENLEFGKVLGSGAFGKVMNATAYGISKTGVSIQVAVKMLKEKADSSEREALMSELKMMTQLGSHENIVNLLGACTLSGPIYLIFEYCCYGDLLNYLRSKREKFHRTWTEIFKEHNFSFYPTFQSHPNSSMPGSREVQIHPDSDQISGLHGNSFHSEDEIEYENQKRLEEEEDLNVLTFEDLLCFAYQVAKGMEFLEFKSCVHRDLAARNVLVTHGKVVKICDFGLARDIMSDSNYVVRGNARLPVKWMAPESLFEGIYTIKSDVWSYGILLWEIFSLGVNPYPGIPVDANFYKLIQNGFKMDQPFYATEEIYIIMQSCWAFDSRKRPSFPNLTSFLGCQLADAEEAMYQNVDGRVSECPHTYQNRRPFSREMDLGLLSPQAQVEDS
Protein cereblon/Receptor-type tyrosine-protein kinase FLT3 (Homo sapiens), sequence (Q96SW2 whole entry partner): as the sequence (Q96SW2 whole entry, looked up) above

With `NC1CCC(Nc2nc(Nc3ccc(N4CCN(CCOCCOCCNC(=O)CNc5cccc6c5C(=O)N(C5CCC(=O)NC5=O)C6=O)CC4)cc3)c3ncn(C4CCCC4)c3n2)CC1` (centres undefined) the Activity (MV4-11 [1]) was 6.05%, the Activity (MV4-11 [2]) was 3.38% and the GI50 (THP-1) was 9.99 µM. For the same compound, the Activity [3] was “Dose-Dependent Effect”, the Activity (MV4-11 [4]) was 90.95% and the Activity (MV4-11 [5]) was “inactive”. The Activity (MV4-11 [6]) was 12.82%, the Activity (MV4-11 [7]) was 6.85% and the Activity (MV4-11 [8]) was 5.22%. It also gave an Activity [9] of 8%, an Activity (MV4-11 [10]) of 82.36% and an Activity (MV4-11 [11]) of 8.04%. The Activity (MV4-11 [12]) was 79.82%, the Activity [13] was “inactive” and the Activity (MV4-11 [14]) was 21.5%. The Activity (MV4-11 [15]) was 12.41%, the Activity (MV4-11 [16]) was 21.07% and the Activity (MV4-11 [17]) was 57.33%. For the same compound, the Activity (MV4-11 [18]) was 20.86%, the Activity (MV4-11 [19]) was “inactive” and the Activity (MV4-11 [20]) was “Dose-Dependent Effect”. The Activity (MV4-11 [21]) was 28.88%, the Activity [22] was “inactive” and the GI50 (MV4-11 [23]) was 0.047 µM. The Activity (MV4-11 [24]) was 6.07%, the Activity (MV4-11 [25]) was 20.31% and the Activity (MV4-11 [26]) was “Dose-Dependent Effect”. The Activity (MV4-11 [27]) was 76.96% and the inhibition [28] was “Active”.
